Measurements published in patent publication US11819492B2, “Natural product derivatives for inhibiting cellular necroptosis, ferroptosis and oxytosis” (Institut National de la Sante et de la Recherche Medicale …, priority 2016, dated 2023).

Tests used:
[1] = test system: Porcine LLC-PK1 cells (kidney proximal tubule cell line); experiment: Cold-induced cell death (cold storage), MTS viability assay; assay type: cell-based; settings: 0.01-50.00 μM, 24 hours at 4° C., FIGS. 16a, 16b
Experimental: At it was previously shown (Ahlenstiel et al. Transplantation […], 81(2), 231-239), cold storage induces a cell-death process. Porcine LLC-PK1 cells (kidney proximal tubule cell line) were stored at approximately 4° C. during 24 hours with or without the tested molecules. […] Cells were then incubated at 37° C., 5% CO2 before performing MTS viability assay. Cell viability was monitored using CellTiter 96® AQueous Non-Radioactive Cell Proliferation Assay (Promega, Fitchburg, WI, USA), based on the water-soluble tetrazolium compound MTS (3-[4,5-dimethylthiazol-2-yl]-5-[3-carboxymethoxy-phenyl]-2-[4-sulfophenyl]-2H-tetrazolium, inner salt) according to the manufacturers instructions.

[2] = test system: rat embryonic myoblastic H9C2 cells; experiment: H2O2-induced necrosis, LDH release assay; assay type: cell-based; settings: 10 μM, 2 hours pretreatment, 800 μM H2O2 for 24 hours, FIG. 17
Experimental: The rat embryonic myoblastic H9C2 cells were cultured at 10,000 cells/well in 96-well-plates for 24 hours at 37° C./5% CO2. […] LB corresponds to cells treated with a lysis buffer (100% of cell death). Cell cytotoxicity was determined by a colorimetric assay quantitatively measuring lactate dehydrogenase (LDH) released […].

[3] = test system: Human retinal pigment epithelial cell line, ARPE-19; settings: 200 μM, Hanus et al. 2016; cited from earlier work

SMILES | protection from death induced by cold storage [1] | protection from death induced by H2O2 (LDH release) [2] | inhibition of NaIO3-induced necroptosis in retinal pigment epithelial cell line [3]
CN1C(=O)NC(Cc2c[nH]c3c(Cl)cccc23)C1=O (stereo not drawn) [Nec-1s, Necrostatin-1s, reference compound] | inactive | less effective | 
CN1C(=O)C(Cc2c[nH]c3ccccc23)NC1=S (stereo not drawn) [necrostatin-1] |  |  | inhibited
